According to patent US20070232650A1, “Malate salts, and polymorphs of (3S,5S)-7-[3-amino-5-methyl-piperidinyl]-1-cyclopropyl-1,4-dihydro-8-methoxy-4-oxo-3-quinolinecarboxylic acid” (The Procter & Gamble Company, priority 2006, published 2007):

How the values were obtained:
[1] = Solubility of isolated salt forms (salt screen)
[2] = Chemical stability of salt forms; type: physicochemical; conditions: upon scale up
Excerpt: Malate salts of 7-[3S-amino-5S-methyl-piperidinyl]-1-cyclopropyl-1,4-dihydro-8-methoxy-4-oxo-3-quinolinecarboxylic acid may be formed and isolated under practical manufacturing conditions. Use of the chiral malate for salt formation (as the racemic mix or the chirally pure forms) may in some instances assist with chiral purification of 7-[3S-amino-5S-methyl-piperidinyl]-1-cyclopropyl-1,4-dihydro-8-methoxy-4-oxo-3-quinolinecarboxylic acid. […] Using the same test methods, the anhydrate forms are shown to pick up moisture and spontaneously convert to the corresponding hydrated form upon exposure to humidity.

| Solubility ([1]; salt screen, Table 1) | Solubility ([1]; water) [mg/mL] | Compound | Ease of Isolation (degradation) [2] |
| --- | --- | --- | --- |
| 12 (hemi- mg/ml | – | COc1c(N2C[C@@H](C)C[C@H](N)C2)ccc2c(=O)c(C(=O)O)cn(C3CC3)c12 (racemic) [DL-malate, hemi-hydrate, (3S,5S)-7-[3-amino-5-methyl-piperidinyl]-1-cyclopropyl-1,4-dihydro-8-methoxy-4-oxo-3-quinolinecarboxylic acid] | – |
| – | < 1 | COc1c(N2C[C@@H](C)C[C@H](N)C2)ccc2c(=O)c(C(=O)O)cn(C3CC3)c12 [Freebase, (3S,5S)-7-[3-amino-5-methyl-piperidinyl]-1-cyclopropyl-1,4-dihydro-8-methoxy-4-oxo-3-quinolinecarboxylic acid] | – |
| 9 mg/mL | – | Fumarate | – |

| Compound | Solubility ([1]; salt screen, Table 1) | Solubility ([1]; water) [mg/mL] | Ease of Isolation (degradation) [2] |
| --- | --- | --- | --- |
| O=C(O)[C@H]1OC(O)[C@H](O)[C@@H](O)[C@@H]1O (stereo partly drawn) [D-Glucuronate] | 8 mg/mL | – | Degradation |
